Measured values taken from paper PMC7917255 (Frontiers in Pharmacology, 2021).
Changes are numbered by the printed parent chain.

What was measured:
ABCG2 [1] = target: T1, ABCG2 (Homo sapiens, UniProt Q9UNQ0); assay: biochemical
T1 construct: ABCG2 in insect cell membrane vesicles (total membranes)
T1 sequence (Q9UNQ0 1-655): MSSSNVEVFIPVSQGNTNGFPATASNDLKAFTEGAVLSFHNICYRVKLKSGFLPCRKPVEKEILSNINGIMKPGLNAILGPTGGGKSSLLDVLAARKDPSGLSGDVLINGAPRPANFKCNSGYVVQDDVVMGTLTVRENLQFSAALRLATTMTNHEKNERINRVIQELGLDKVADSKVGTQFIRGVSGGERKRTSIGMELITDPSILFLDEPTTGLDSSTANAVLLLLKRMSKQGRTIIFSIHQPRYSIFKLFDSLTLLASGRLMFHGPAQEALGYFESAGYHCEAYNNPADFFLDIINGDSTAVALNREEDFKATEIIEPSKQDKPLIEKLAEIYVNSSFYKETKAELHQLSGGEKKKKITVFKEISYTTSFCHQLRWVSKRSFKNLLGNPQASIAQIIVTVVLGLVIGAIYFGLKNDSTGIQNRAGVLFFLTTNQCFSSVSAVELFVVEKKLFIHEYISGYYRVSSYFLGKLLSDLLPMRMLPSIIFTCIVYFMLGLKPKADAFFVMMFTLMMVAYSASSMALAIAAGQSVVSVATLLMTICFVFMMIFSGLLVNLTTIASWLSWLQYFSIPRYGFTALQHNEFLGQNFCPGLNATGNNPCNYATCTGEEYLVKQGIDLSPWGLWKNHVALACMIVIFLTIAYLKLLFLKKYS

ABCG2 [2] = target: T2, ABCG2 (Homo sapiens, UniProt Q9UNQ0, R482T); assay: tritium-labeled mitoxantrone accumulation in transfected cells
T2 sequence (Q9UNQ0 1-655 R482T): T1 sequence (Q9UNQ0 1-655) with R482T

| EC50 (ABCG2 [1]) | Compound | tritium-labeled mitoxantrone accumulation in transfected cells (ABCG2 [2]) |
| --- | --- | --- |
| 140 nM | Cc1cc(O)c(-c2ccc([C@@H](C)CN(C)C)cc2)c2c1[nH]c(=O)c1sccc12 [OTS964] |  |
|  | O=C1c2c(O)ccc(O)c2C(=O)c2c(NCCNCCO)ccc(NCCNCCO)c21 [mitoxantrone] | ABCG2-mediated efflux of mitoxantrone, which is an established substrate of ABCG2, in R482T-mutant-ABCG2-overexpressing cell line |
